{"source": "patent US8535928B2", "about": "“Protease and use thereof” (Osaka University, priority 2008, dated 2013)", "target": "T1, Thermococcus kodakaraensis KOD1 protease Tk-SP (mature subtilisin-like serine protease, SEQ ID NO: 1 or SEQ ID NO: 3) (Thermococcus kodakarensis, UniProt Q5JIZ5)", "T1 construct": "C-terminus at 562 or 563", "T1 sequence (Q5JIZ5 137-562)": "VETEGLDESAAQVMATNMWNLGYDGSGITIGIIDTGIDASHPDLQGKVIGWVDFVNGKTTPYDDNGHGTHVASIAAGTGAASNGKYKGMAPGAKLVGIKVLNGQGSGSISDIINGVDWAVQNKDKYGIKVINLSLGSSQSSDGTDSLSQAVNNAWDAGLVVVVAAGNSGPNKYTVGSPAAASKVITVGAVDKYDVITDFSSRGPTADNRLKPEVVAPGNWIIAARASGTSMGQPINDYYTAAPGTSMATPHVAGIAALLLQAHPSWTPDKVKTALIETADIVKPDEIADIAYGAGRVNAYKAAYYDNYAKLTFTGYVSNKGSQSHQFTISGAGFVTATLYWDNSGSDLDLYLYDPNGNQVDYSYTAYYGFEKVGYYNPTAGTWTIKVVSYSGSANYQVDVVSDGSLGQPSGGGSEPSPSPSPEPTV", "assay": "Rate parameters of Tk-SP with Suc-AAPF-pNA (Michaelis-Menten)", "assay_type": "biochemical", "description": "For examination of the pH dependence and the buffer dependence of the Tk-SP, enzyme reactions were performed using acetate buffers (pH 4.5, 5.0, 5.2, 5.4 and 5.6), MES buffers (pH 5.5, 6.0, 6.5 and 7.0), HEPES buffers (pH 7.0 and 7.5), Tris-HCl buffers (pH 7.0, 7.5, 8.0, 8.5 and 9.0), glycine-NaOH buffers (pH 8.5, 9.0, 9.5 and 10.0) and CAPS-NaOH buffers (pH 9.0, 9.5, 10.0, 10.5, 11.0 and 11.5) in the following procedure. 100 μl of a reaction mixture containing a 50 mM buffer and 2 mM Suc-AAPF-pNA (synthetic substrate) was incubated at 20° C. for 5 minutes. To this, 0.1 μg of the Tk-SP was added and the reaction mixture was further incubated at 20° C. for 10 minutes. The reaction was stopped by addition of 10 μl of acetic acid, and then the amount of p-nitroaniline produced from the synthetic substrate Suc-AAPF-pNA was determined by use of the absorption coefficient of 8900 M^−1 cm^−1 from the absorbance at 410 nm in an ultraviolet spectrophotometer (Beckman model DU640). The amount of the enzyme which catalyzes the production of 1 μmol of p-nitroaniline per minute was defined as “one unit.” The enzyme activity per milligram of the protein was defined as specific activity.\nBy use of, as a substrate, Suc-AAPF-pNA at various concentrations ranging from 0.01 to 2 mM, the specific activity of the Tk-SP was measured at 20 and 80° C. The measurement procedure was the same as that of Example 2. The obtained values were applied to the Michaelis-Menten equation for calculation of the rate parameters. For comparison, the specific activity of a known thermostable protease, Tk-subtilisin (see nonpatent literature 1) was similarly measured and then the rate parameters thereof were calculated.", "note": "Starred links: 1 amine or outer side, 2 acyl side, 3 side chain; linkers in the order of their positions; H or OH if unused. Residues, ends and D or L forms follow the SMILES beside them. *: point of attachment. pNA = O=[N+]([O-])c1ccc(N*)cc1; Suc = O=C(CCC(=O)[*:2])[*:1]"}
{"smiles": "C[C@H](NC(=O)CCC(=O)O)C(=O)N[C@@H](C)C(=O)N1CCC[C@H]1C(=O)N[C@@H](Cc1ccccc1)C(=O)Nc1ccc([N+](=O)[O-])cc1", "note": "[Suc-AAPF-pNA] (Suc-AAPF-pNA)", "values": [{"measurement": "Km value relative to the Km value of Tk-subtilisin", "setting": "80° C.", "result": "about 1/10"}, {"measurement": "Km", "setting": "80° C., substrate 0.01 to 2 mM", "result": "100 to 1000", "unit": "µM"}, {"measurement": "Km value compared with that of Tk-subtilisin", "setting": "at either temperature (20 and 80° C.)", "result": "smaller than that of Tk-subtilisin"}]}
